Laboratory results reported in patent publication US20210386367A1, “DEVICES AND SYSTEMS FOR GASTROINTESTINAL MICROBIOME DETECTION AND MANIPULATION” (Progenity, Inc., priority 2018, published 2021).
≈ marks a conversion by molar mass, not a printed value. Where two headings read alike, the source gives them in different places.

Experiments:
[1] = in vivo, cited from earlier work
MDR Enterobacteriaceae = details: cited from earlier work
Citrobacter spp. = details: cited from earlier work
[2] = system: Bacteroides thetaiotaomicron; details: cited from earlier work
[3] = system: E. coli spontaneous mutants; details: E. coli ATCC 25922; CLSI QC range shown in parentheses; cited from earlier work
E. coli ATCC 25922 = details: cited from earlier work
Bacteroides fragilis [4] = details: cited from earlier work
Veillonella = details: cited from earlier work
Bacteroides vulgatus [5] = details: cited from earlier work
Enterobacteriaceae [6] = details: cited from earlier work
Prevotella melanogenica = details: cited from earlier work
B. ovatus MMX 3503 = assay: Time-kill assay; assay type: cell-based, Bacteroides ovatus; details: for time-kill kinetics outcome (bactericidal = ≥3 log reduction in CFU per mL): 2×, 4×, 8× MIC, 2, 6, 24, 48 hr
B. fragilis = assay: Spontaneous mutation frequency and mutation prevention concentration (MPC); assay type: cell-based; details: B. fragilis ATCC 25285
Description: As used herein, “spontaneous mutation frequency” refers to the rate at which mutations arise in a bacterium that can lead to resistance to develop to an antimicrobial agent. “Mutation prevention concentration” or “MPC” refers to the lowest concentration of antimicrobial agent above which the selective proliferation of resistant mutants is expected to occur only rarely.

[7] = system: Bacteroides spp. (B. fragilis ATCC 25285, B. vulgatus, B. ovatus MMX 3503); details: cited from earlier work
Proteus mirabilis = details: cited from earlier work
[8] = system: Clostridium spp. clinical isolates; assay: MIC distribution against clinical isolates; assay type: cell-based; details: 10 Clostridium spp. isolates
Description: (n=4 C. sporogenes, n=2 C. ramosum and n=4 C. innocuum) clinical isolates (μg/mL).
As used herein, “minimum inhibitory concentration” or “MIC” refers to the lowest concentration of an antimicrobial agent, for example, an antimicrobial agent as described herein, required to inhibit the growth of an organism. […] “MIC90” represents the MIC value at which ≥90% of the strains within a test population are inhibited; the 90th percentile.
Many susceptibility testing methods are known in the art and can be used as described herein (see, e.g., Jorgensen and Ferraro (2009) Clinical Infectious Diseases 49:1749-1755; and Maurer et al. (2017) Infectious Disease Reports 9:6839; the entire contents of each of the foregoing are incorporated herein by reference). For example, antimicrobial susceptibility can be determined using conventional culture based methods such as the broth or agar dilution test. In these dilution tests, the bacterial isolate of interest is inoculated onto different media that include serial dilutions of an antimicrobial agent, and incubated under appropriate conditions (e.g., overnight at 37° C.) to allow for growth to occur. Following the incubation period, the media is examined to determine bacterial growth. The lowest concentration of antibiotic that prevents growth represents the minimal inhibitory concentration (MIC). Broth dilution tests can be miniaturized and mechanized allowing for reproducibility and high throughput.

Bacteroides ovatus = details: cited from earlier work
Escherichia coli [9] = details: cited from earlier work
Enterococcus faecalis = details: cited from earlier work
Bacteroides vulgatus [10] = details: cited from earlier work; remark: listed apart in the source
Bacteroides fragilis [11] = details: cited from earlier work; remark: listed apart in the source
Enterobacteriaceae [12] = details: cited from earlier work; remark: listed apart in the source
Fusobacterium spp = details: cited from earlier work
Staphylococcus aureus = details: cited from earlier work
Escherichia coli [13] = details: cited from earlier work; remark: listed apart in the source
Veillonella spp = details: cited from earlier work
[14] = rifaximin selection 4X MIC, 1 μg/mL
[15] = rifaximin selection 8X MIC, 2 μg/mL

For `C[C@@H](O)[C@H]1C(=O)N2C(C(=O)O)=C(S[C@@H]3CN[C@H](C(=O)N(C)C)C3)[C@H](C)[C@H]12` [meropenem], the “Rat oral exposure (Dose)” value [1] is listed as about 4%, the “% S” value (MDR Enterobacteriaceae) is listed as 75% and the MIC50 (MDR Enterobacteriaceae) is listed as at most 0.12 µg/mL. For the same compound, the MIC90 (MDR Enterobacteriaceae) was over 8 µg/mL, the “% S” value (Citrobacter spp.) was 86.4% and the MIC50 (Citrobacter spp.) was at most 0.06 µg/mL. For the same compound, the MIC90 (Citrobacter spp.) was 4 µg/mL (≈ 10.4 µM), the “% S” value [2] was 100% and the MIC50 [2] was 0.25 µg/mL (≈ 0.652 µM). For the same compound, the MIC90 [2] was 0.5 µg/mL (≈ 1.3 µM), the “MIC, CLSI QC range” value [3] was “(0.008-0.06) μg/mL” and the “CLSI QC range (MIC)” value (E. coli ATCC 25922) was “(0.008-0.06)^1 μg/mL”. The “% S” value (Bacteroides fragilis [4]) was 94.5%, the MIC50 (Bacteroides fragilis [4]) was 0.25 µg/mL (≈ 0.652 µM) and the MIC90 (Bacteroides fragilis [4]) was 4 µg/mL (≈ 10.4 µM). The “% S” value (Veillonella) was 100%, the MIC50 (Veillonella) was at most 0.03 µg/mL and the MIC90 (Veillonella) was at most 0.03 µg/mL. For the same compound, the “MIC range” value (Veillonella) was at most 0.03 to 0.25 µg/mL, the “% S” value (Bacteroides vulgatus [5]) was 100% and the MIC50 (Bacteroides vulgatus [5]) was 0.5 µg/mL (≈ 1.3 µM). The MIC90 (Bacteroides vulgatus [5]) was 1 µg/mL (≈ 2.61 µM), the “MIC range” value (Bacteroides vulgatus [5]) was 0.125 to 1 µg/mL and the “% S” value (Enterobacteriaceae [6]) was 97.2%. For the same compound, the MIC50 (Enterobacteriaceae [6]) was 0.03 µg/mL (≈ 0.0782 µM), the MIC90 (Enterobacteriaceae [6]) was 0.12 µg/mL (≈ 0.313 µM) and the “% S” value (Prevotella melanogenica) was 100%. The MIC50 (Prevotella melanogenica) was 0.06 µg/mL (≈ 0.156 µM), the MIC90 (Prevotella melanogenica) was 0.25 µg/mL (≈ 0.652 µM) and the “MIC range” value (Prevotella melanogenica) was at most 0.03 to 0.25 µg/mL. The “time-kill kinetics outcome (bactericidal = ≥3 log reduction in CFU per mL)” value (B. ovatus MMX 3503) was “bactericidal at 8×MIC at 6, 24 and 48 hr; at 4×MIC at 24 and 48 hr; and at 2×MIC at 24 hr with rebound growth at 48 hr”, the MPC (B. fragilis) was 0.5 µg/mL and the “Average Count” value (B. fragilis; selection 4X MIC, 0.5 μg/mL) was 0 CFU. For the same compound, the “Count 1” value (B. fragilis; selection 4X MIC, 0.5 μg/mL) was 0 CFU, the “Count 2” value (B. fragilis; selection 4X MIC, 0.5 μg/mL) was 0 CFU and the “Spontaneous Mutation Frequency” value (B. fragilis; selection 4X MIC, 0.5 μg/mL) was ≤1.48 × 10^−10. The “Average Count” value (B. fragilis; selection 8X MIC, 1 μg/mL) was 0 CFU, the “Count 1” value (B. fragilis; selection 8X MIC, 1 μg/mL) was 0 CFU and the “Count 2” value (B. fragilis; selection 8X MIC, 1 μg/mL) was 0 CFU. The “Spontaneous Mutation Frequency” value (B. fragilis; selection 8X MIC, 1 μg/mL) was ≤1.48 × 10^−10, the “CLSI QC range (agar MIC)” value [7] was 0.03 to 0.25 µg/mL and the “% S” value (Proteus mirabilis) was 99.4%. For the same compound, the MIC50 (Proteus mirabilis) was 0.06 µg/mL (≈ 0.156 µM) and the MIC90 (Proteus mirabilis) was 0.12 µg/mL (≈ 0.313 µM).
For `CO[C@H]1/C=C/O[C@@]2(C)Oc3c(C)c(O)c4c(O)c(c5c(nc6cc(C)ccn65)c4c3C2=O)NC(=O)/C(C)=C\C=C\[C@H](C)[C@H](O)[C@@H](C)[C@@H](O)[C@@H](C)[C@H](OC(C)=O)[C@@H]1C` [rifaximin], the “Cumulative percentage of isolates inhibited at MIC” value ([8]; MIC 8 μg/mL) is listed as 20.0%, the “Number of test isolates at MIC” value ([8]; MIC 8 μg/mL) is listed as 1 and the MIC50 (Bacteroides ovatus) is listed as 1 µg/mL (≈ 1.27 µM). For the same compound, the MIC90 (Bacteroides ovatus) was 1 µg/mL (≈ 1.27 µM), the MIC50 (Escherichia coli [9]) was 32 µg/mL (≈ 40.7 µM) and the MIC90 (Escherichia coli [9]) was 128 µg/mL (≈ 163 µM). The “% S” value (Enterococcus faecalis) was 100%, the MIC50 (Enterococcus faecalis) was 4 µg/mL (≈ 5.09 µM) and the MIC90 (Enterococcus faecalis) was 16 µg/mL (≈ 20.4 µM). For the same compound, the “MIC range” value (Enterococcus faecalis) was at most 0.25 to 16 µg/mL, the MIC50 (Bacteroides vulgatus [10]) was 0.25 µg/mL (≈ 0.318 µM) and the MIC90 (Bacteroides vulgatus [10]) was 0.5 µg/mL (≈ 0.636 µM). For the same compound, the “MIC range” value (Bacteroides vulgatus [10]) was 0.25 to 4 µg/mL, the “time-kill kinetics outcome (bactericidal = ≥3 log reduction in CFU per mL)” value (B. ovatus MMX 3503) was “rebounded to no-drug control levels at later time points” and the rapid killing (B. ovatus MMX 3503; 6 hr) was about 2 log10 CFU. For the same compound, the MFC (B. fragilis) was over 2 µg/mL, the “Average Count” value (B. fragilis; [14]) was 11 CFU and the “Count 1” value (B. fragilis; [14]) was 12 CFU. The “Count 2” value (B. fragilis; [14]) was 10 CFU, the “Spontaneous Mutation Frequency” value (B. fragilis; [14]) was 1.63 × 10^−9 and the “Average Count” value (B. fragilis; [15]) was 8 CFU. For the same compound, the “Count 1” value (B. fragilis; [15]) was 6 CFU, the “Count 2” value (B. fragilis; [15]) was 9 CFU and the “Spontaneous Mutation Frequency” value (B. fragilis; [15]) was 1.19 × 10^−9. For the same compound, the MIC50 (Bacteroides fragilis [11]) was 0.25 µg/mL (≈ 0.318 µM), the MIC90 (Bacteroides fragilis [11]) was over 1024 µg/mL and the MIC50 (Enterobacteriaceae [12]) was 32 µg/mL (≈ 40.7 µM). The MIC90 (Enterobacteriaceae [12]) was over 128 µg/mL.
In the case of `CO/N=C(\C(=O)N[C@@H]1C(=O)N2C(C(=O)O)=C(CSc3nc(=O)c(=O)[nH]n3C)CS[C@H]12)c1csc(N)n1` [ceftriaxone], the “% S” value (Fusobacterium spp) is listed as 87%, the MIC50 (Fusobacterium spp) is listed as 0.5 µg/mL (≈ 0.902 µM) and the MIC90 (Fusobacterium spp) is listed as 32 µg/mL (≈ 57.7 µM). For the same compound, the “Rat oral exposure lower than iv” value ([1]; 50 mg/kg) was “mg/kg (200-fold”, the “Rat oral exposure (Dose)” value ([1]; 50 mg/kg) was 0.9 μg*hr/mL at 50 and the “Cumulative percentage of isolates inhibited at MIC” value ([8]; MIC 4 μg/mL) was 40.0%. For the same compound, the “MIC, CLSI QC range” value [3] was “(0.03-0.12)^1 μg/mL”, the “CLSI QC range (MIC)” value (E. coli ATCC 25922) was “(0.03-0.12) μg/mL” and the “% S” value (Staphylococcus aureus) was 54.5%. The MIC50 (Staphylococcus aureus) was 4 µg/mL (≈ 7.21 µM), the MIC90 (Staphylococcus aureus) was over 8 µg/mL and the “CLSI QC range (agar MIC)” value [7] was 32 to 128 µg/mL. The “% S” value (Escherichia coli [13]) was 87%, the MIC50 (Escherichia coli [13]) was at most 0.25 µg/mL and the MIC90 (Escherichia coli [13]) was 32 µg/mL (≈ 57.7 µM). The “% S” value (Veillonella spp) was 79%, the MIC50 (Veillonella spp) was 4 µg/mL (≈ 7.21 µM) and the MIC90 (Veillonella spp) was 8 µg/mL (≈ 14.4 µM). The “MIC range” value (Veillonella spp) was 0.03 to 8 µg/mL.
